Data as given in ChEMBL document CHEMBL1201862, “PubChem BioAssay data set” (2004).
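Growth conditions: 96-well plates. Treatment: test compound, 48 hours, 5 concentrations. Analysis: linear interpolation between bracketing concentrations; unreached endpoints set to highest concentration. GI50 = concentration required for 50% inhibition of growth.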 Active and inactive are the calls of the source. Rule as the data show it: active = GI50 up to about 1.1 µM and inactive = higher.

How the values were obtained:
Test in all cases: DTP human tumour cell line panel, 48 h
[1] = system: SK-OV-3
[2] = system: SK-MEL-5
[3] = system: A549
[4] = system: TK-10
[5] = system: HOP-92
[6] = system: RXF 393
[7] = system: COLO 205
[8] = system: ACHN
[9] = system: SF-539
[10] = system: NCI-H23
[11] = system: OVCAR-4
[12] = system: U-251
[13] = system: HL-60
[14] = system: NCI-H522
[15] = system: HCT-15
[16] = system: KM12

SMILES | GI50 [1] | GI50 [2] | GI50 [3] | GI50 [4] | GI50 [5] | GI50 [6] | GI50 [7] | GI50 [8] | GI50 [9] | GI50 [10] | GI50 [11] | GI50 [12] | GI50 [13] | GI50 [14] | GI50 [15] | GI50 [16]
COC(OC)c1cccnc1C | > 100 µM (inactive) | > 100 µM (inactive) | > 100 µM (inactive) | > 100 µM (inactive) | > 100 µM (inactive) | > 100 µM (inactive) | > 100 µM (inactive) | > 100 µM (inactive) | > 100 µM (inactive) | > 100 µM (inactive) | > 100 µM (inactive) | > 100 µM (inactive) | > 100 µM (inactive) | > 100 µM (inactive) | > 100 µM | > 100 µM (inactive)
CCN(CC)C(=O)Cc1c(C(=O)N(CC)CC)c(=O)nc2sccn12 | > 100 µM (inactive) | – | > 100 µM (inactive) | > 100 µM (inactive) | > 100 µM (inactive) | > 100 µM (inactive) | > 100 µM (inactive) | > 100 µM (inactive) | > 100 µM (inactive) | > 100 µM (inactive) | > 100 µM (inactive) | > 100 µM (inactive) | > 100 µM (inactive) | > 100 µM (inactive) | > 100 µM | > 100 µM (inactive)
CSc1ccc2c(cc1=O)[C@@H](NC(=O)c1ccc(Cl)cc1)CCc1cc(O)c(O)c(O)c1-2 | > 100 µM (inactive) | 50.4 µM (inactive) | 53 µM (inactive) | > 100 µM (inactive) | > 100 µM (inactive) | > 100 µM (inactive) | 62.5 µM (inactive) | > 100 µM (inactive) | 29.8 µM (inactive) | 32.1 µM (inactive) | 29.6 µM (inactive) | 21.8 µM (inactive) | 27.5 µM (inactive) | 15.4 µM (inactive) | 21.6 µM | 40.4 µM (inactive)
COC(=O)c1nc(N)nc(O)c1CCCCCc1c(O)nc(N)nc1C(=O)OC | > 50 µM (inactive) | > 50 µM (inactive) | > 50 µM (inactive) | > 50 µM (inactive) | > 50 µM (inactive) | > 50 µM (inactive) | > 50 µM (inactive) | > 50 µM (inactive) | > 50 µM (inactive) | > 50 µM (inactive) | > 50 µM (inactive) | > 50 µM (inactive) | > 50 µM (inactive) | > 50 µM (inactive) | > 50 µM | > 50 µM (inactive)
Clc1ccc(Nc2nc3ccccc3nc2-c2cccs2)cc1Cl | > 100 µM (inactive) | – | 29.9 µM (inactive) | 42.1 µM (inactive) | 19.7 µM (inactive) | 22.6 µM (inactive) | 26.1 µM (inactive) | 32.1 µM (inactive) | 45.3 µM (inactive) | 37.8 µM (inactive) | – | > 10 µM (inactive) | 12.2 µM (inactive) | – | 10.3 µM | –
C=CCC1C(=O)CC2(C)C(CC=C)C(=O)CC12C (stereo unspecified) | > 100 µM (inactive) | > 100 µM (inactive) | > 100 µM (inactive) | > 100 µM (inactive) | > 100 µM (inactive) | – | > 100 µM (inactive) | > 100 µM (inactive) | > 100 µM (inactive) | > 100 µM (inactive) | > 100 µM (inactive) | > 100 µM (inactive) | > 100 µM (inactive) | > 100 µM (inactive) | > 100 µM | > 100 µM (inactive)
CC1(c2ccccc2)CC(c2cccc([N+](=O)[O-])c2)=NO1 (stereo unspecified) | > 100 µM (inactive) | 56.2 µM (inactive) | > 100 µM (inactive) | > 100 µM (inactive) | > 100 µM (inactive) | – | > 100 µM (inactive) | > 100 µM (inactive) | > 100 µM (inactive) | 89.1 µM (inactive) | > 100 µM (inactive) | > 100 µM (inactive) | – | 30.1 µM (inactive) | > 100 µM | > 100 µM (inactive)
O=C(Nc1ccccc1-c1nc2ccccc2[nH]c1=O)c1ccccc1 | 20.3 µM (inactive) | 32.6 µM (inactive) | 25.9 µM (inactive) | 17.1 µM (inactive) | 21.4 µM (inactive) | 21.2 µM (inactive) | > 100 µM (inactive) | 20.1 µM (inactive) | 20.6 µM (inactive) | 33.7 µM (inactive) | 19.9 µM (inactive) | 23.3 µM (inactive) | – | 14.8 µM (inactive) | 35.2 µM | 28.7 µM (inactive)
Cc1c(O)c(=O)ccn1C1OC(CO)C(O)C1O (stereo unspecified) | > 100 µM (inactive) | > 100 µM (inactive) | > 100 µM (inactive) | 68.9 µM (inactive) | > 100 µM (inactive) | > 100 µM (inactive) | > 100 µM (inactive) | > 100 µM (inactive) | – | – | > 100 µM (inactive) | > 100 µM (inactive) | 17.4 µM (inactive) | > 100 µM (inactive) | 68.1 µM | > 100 µM (inactive)
COc1ccc2ccnc(Cc3ccc(OCc4ccccc4)c(OC)c3)c2c1 | – | 15.1 µM (inactive) | 24.4 µM (inactive) | 27.9 µM (inactive) | – | – | – | 23.6 µM (inactive) | 17.2 µM (inactive) | 19.8 µM (inactive) | 14.2 µM (inactive) | 20.9 µM (inactive) | – | 22.8 µM (inactive) | 15.2 µM | 18 µM (inactive)
COc1cc(C(CC(OC)OC)=C(C#N)C#N)cc(OC)c1OC | 32.4 µM (inactive) | 7.4 µM (inactive) | 28.8 µM (inactive) | 58.3 µM (inactive) | 17.1 µM (inactive) | 25.2 µM (inactive) | 9.35 µM (inactive) | 26.7 µM (inactive) | 13.7 µM (inactive) | 28.1 µM (inactive) | – | 13.3 µM (inactive) | 19.5 µM (inactive) | 13.9 µM (inactive) | 16.9 µM | 18.7 µM (inactive)
C/C(CC(=O)Nc1cc(Cl)c(Cl)cc1Cl)=N\NS(=O)(=O)c1ccc(C)cc1 | 53.7 µM (inactive) | 38.3 µM (inactive) | 45.7 µM (inactive) | 48.5 µM (inactive) | 23.1 µM (inactive) | 24.9 µM (inactive) | 26.8 µM (inactive) | 25.1 µM (inactive) | 30.5 µM (inactive) | 21.6 µM (inactive) | – | 32 µM (inactive) | 24.1 µM (inactive) | 17.6 µM (inactive) | – | 40.3 µM (inactive)
CS(=O)(=O)OCCN1CCN(C(=O)c2ccc(Cl)c3c(Nc4ccc(S(=O)(=O)N=C(N)N)cc4)c4ccccc4nc23)CC1 | > 100 µM (inactive) | > 100 µM (inactive) | > 100 µM (inactive) | > 100 µM (inactive) | > 100 µM (inactive) | > 100 µM (inactive) | > 100 µM (inactive) | > 100 µM (inactive) | > 100 µM (inactive) | > 100 µM (inactive) | > 100 µM (inactive) | > 100 µM (inactive) | > 100 µM (inactive) | – | > 100 µM | > 100 µM (inactive)
C=Cc1ccc(C)[n+](C[Si](C)(C)O[Si](C)(C)C)c1 | > 100 µM (inactive) | > 100 µM (inactive) | > 100 µM (inactive) | – | – | – | > 100 µM (inactive) | > 100 µM (inactive) | > 100 µM (inactive) | > 100 µM (inactive) | 42.3 µM (inactive) | > 100 µM (inactive) | – | > 100 µM (inactive) | > 100 µM | > 100 µM (inactive)
CCN(CC)c1c(C(=O)/C=C/c2ccc(F)cc2)c(-c2ccccc2)nn(C)c1=O | 11.9 µM (inactive) | 8.89 µM (inactive) | 8.69 µM (inactive) | 17.7 µM (inactive) | 3.85 µM (inactive) | 3.13 µM (inactive) | 4.25 µM (inactive) | 6.9 µM (inactive) | – | 4.12 µM (inactive) | 4.24 µM (inactive) | 5.98 µM (inactive) | 2.9 µM (inactive) | 3.57 µM (inactive) | 10.4 µM | 4.85 µM (inactive)
CCn1c2ccccc2c2ccc3c(c21)C(=O)C=CC3=O | 18.6 µM (inactive) | < 0.01 µM (active) | 43.6 µM (inactive) | 16.4 µM (inactive) | 12.2 µM (inactive) | – | 9.55 µM (inactive) | 16.5 µM (inactive) | 26.2 µM (inactive) | 22.5 µM (inactive) | 4.06 µM (inactive) | 15.9 µM (inactive) | 2.43 µM (inactive) | 2.58 µM (inactive) | 10.4 µM | 14.4 µM (inactive)
CCOC(=O)C1(CC)CCCCC(=O)N1 (stereo unspecified) | > 100 µM (inactive) | – | > 100 µM (inactive) | > 100 µM (inactive) | > 100 µM (inactive) | > 100 µM (inactive) | > 100 µM (inactive) | > 100 µM (inactive) | – | > 100 µM (inactive) | > 100 µM (inactive) | > 100 µM (inactive) | 36.2 µM (inactive) | – | > 100 µM | –
c1ccc2c(NCCCCCCNc3cccc4ccccc34)cccc2c1 | > 100 µM (inactive) | 60.3 µM (inactive) | 42 µM (inactive) | > 100 µM (inactive) | 50.7 µM (inactive) | – | > 100 µM (inactive) | > 100 µM (inactive) | > 100 µM (inactive) | 75.3 µM (inactive) | 66.1 µM (inactive) | > 100 µM (inactive) | 51.5 µM (inactive) | > 100 µM (inactive) | > 100 µM | > 100 µM (inactive)
O=[N+]([O-])c1cccc(C(O)/C(=N/O)c2nc3ccc(Cl)cc3nc2O)c1 (stereo unspecified) | > 100 µM (inactive) | > 100 µM (inactive) | > 100 µM (inactive) | > 100 µM (inactive) | > 100 µM (inactive) | > 100 µM (inactive) | > 100 µM (inactive) | > 100 µM (inactive) | > 100 µM (inactive) | > 100 µM (inactive) | > 100 µM (inactive) | – | > 100 µM (inactive) | > 100 µM (inactive) | – | > 100 µM (inactive)
